Drawing on US9109004B2, “Progesterone receptor antagonists” (Bayer Intellectual Property GmbH, priority 2010, dated 2015), this text covers IC50 for nine compounds.

The term IC50 denotes the concentration that inhibits the measured activity by half. Higher therefore signals weaker potency.

For assay [1], the target named is T1, human progesterone receptor A (Homo sapiens, UniProt P06401).
T1 construct: expressed in transfected cells; host or cells: SK-N-MC human neuroblastoma cells, stably transfected
T1 sequence (P06401 1-769 isoform P06401-2): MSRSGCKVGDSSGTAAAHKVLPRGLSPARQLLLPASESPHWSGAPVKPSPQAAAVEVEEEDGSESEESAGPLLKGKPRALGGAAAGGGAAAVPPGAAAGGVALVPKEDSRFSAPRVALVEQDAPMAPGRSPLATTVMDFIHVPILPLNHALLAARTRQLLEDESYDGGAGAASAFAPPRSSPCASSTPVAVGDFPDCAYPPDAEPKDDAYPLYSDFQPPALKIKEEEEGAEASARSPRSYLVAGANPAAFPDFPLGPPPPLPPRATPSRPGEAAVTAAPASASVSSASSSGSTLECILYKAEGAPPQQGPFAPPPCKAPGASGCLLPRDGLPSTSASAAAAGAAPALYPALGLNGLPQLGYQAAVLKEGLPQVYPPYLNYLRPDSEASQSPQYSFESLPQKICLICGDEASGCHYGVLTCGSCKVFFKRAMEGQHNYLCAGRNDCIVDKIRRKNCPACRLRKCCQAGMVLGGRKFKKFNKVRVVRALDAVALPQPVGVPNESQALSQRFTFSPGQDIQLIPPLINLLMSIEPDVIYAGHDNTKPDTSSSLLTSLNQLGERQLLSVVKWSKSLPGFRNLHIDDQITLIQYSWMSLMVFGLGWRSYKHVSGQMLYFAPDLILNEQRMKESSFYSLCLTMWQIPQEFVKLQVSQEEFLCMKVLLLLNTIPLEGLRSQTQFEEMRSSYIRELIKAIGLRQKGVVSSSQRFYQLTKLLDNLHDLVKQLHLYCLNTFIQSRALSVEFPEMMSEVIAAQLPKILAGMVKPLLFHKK
As to the kind of experiment: Progesterone-receptor-antagonistic action in stably transfected SK-N-MC cells, MTV-LUC reporter (PR-A). In kind it is cell-based. The following applies: antagonistic potency vs 0.1 nmol/l promegestone, 24 hours, luciferase. The essentials: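 SK-N-MC neuroblastoma cells stably expressing human PR-B or PR-A plus MMTV-LUC reporter, treated 24 h with 0.1 nmol/l promegestone plus test compound at 0.01 nmol/l–1 μmol/l. Luciferase in lysates read as RLU; values as % efficacy and IC50.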

The target in assay [2] is T2, human progesterone receptor B (Homo sapiens, UniProt P06401).
T2 construct: expressed in transfected cells; host or cells: SK-N-MC human neuroblastoma cells, stably transfected
T2 sequence (P06401 1-933): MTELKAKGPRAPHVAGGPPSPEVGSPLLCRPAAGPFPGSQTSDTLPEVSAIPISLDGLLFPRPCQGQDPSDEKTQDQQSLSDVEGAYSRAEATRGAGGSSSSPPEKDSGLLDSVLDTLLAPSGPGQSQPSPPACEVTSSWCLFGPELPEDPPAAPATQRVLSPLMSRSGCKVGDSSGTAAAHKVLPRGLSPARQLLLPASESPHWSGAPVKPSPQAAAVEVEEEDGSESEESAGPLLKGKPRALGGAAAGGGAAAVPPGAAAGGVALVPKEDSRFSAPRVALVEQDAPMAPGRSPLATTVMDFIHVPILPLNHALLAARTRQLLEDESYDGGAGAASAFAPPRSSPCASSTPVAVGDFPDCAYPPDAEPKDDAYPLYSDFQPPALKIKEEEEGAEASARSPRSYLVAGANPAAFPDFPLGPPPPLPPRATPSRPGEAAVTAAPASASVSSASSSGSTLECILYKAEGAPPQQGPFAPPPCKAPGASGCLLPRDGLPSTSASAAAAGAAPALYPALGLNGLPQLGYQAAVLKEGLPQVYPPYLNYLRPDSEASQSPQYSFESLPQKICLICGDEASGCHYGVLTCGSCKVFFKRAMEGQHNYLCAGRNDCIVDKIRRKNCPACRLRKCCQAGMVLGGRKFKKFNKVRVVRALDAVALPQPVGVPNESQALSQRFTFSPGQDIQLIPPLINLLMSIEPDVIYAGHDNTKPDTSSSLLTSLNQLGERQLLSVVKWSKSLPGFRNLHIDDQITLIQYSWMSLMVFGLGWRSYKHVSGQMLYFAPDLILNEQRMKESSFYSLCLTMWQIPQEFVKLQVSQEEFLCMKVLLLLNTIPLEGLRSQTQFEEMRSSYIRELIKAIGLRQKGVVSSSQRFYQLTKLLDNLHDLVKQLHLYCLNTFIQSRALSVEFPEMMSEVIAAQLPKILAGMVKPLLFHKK
Kind of assay: Progesterone-receptor-antagonistic action in stably transfected SK-N-MC cells, MTV-LUC reporter (PR-B). Type of assay: cell-based. The conditions noted are these: antagonistic potency vs 0.1 nmol/l promegestone, 24 hours, luciferase. The procedure:
Progesterone-Receptor-Antagonistic Action in Stable Transfectants of Human Neuroblastoma Cells (SK-N-MC Cells) with the Human Progesterone A or Progesterone B Receptor and an MTV-LUC Reporter Construct
SK-N-MC cells (human neuroblastoma cells) that have been stably transfected with plasmids that express the human progesterone receptor B (pRChPR-B-neo) or the human progesterone receptor A (pRChPR-A-neo) and a reporter construct (pMMTV-LUC), were incubated for 24 hours either in the absence (negative control) or in the presence of increasing amounts of the particular test compound (0.01 nmol/l, 0.1 nmol/l, 1 nmol/l, 10 nmol/l, 100 nmol/l and 1 μmol/l), to determine the agonistic efficacy. As positive control of reporter gene induction, the cells were treated with the synthetic gestagen promegestone (0.01 nmol/l, 0.1 nmol/l, 1 nmol/l, 10 nmol/l, 100 nmol/l and 1 μmol/l). For determination of the antagonistic activity, the cells were treated with 0.1 nmol/l promegestone and additionally with increasing amounts of the particular test compound (0.01 nmol/l, 0.1 nmol/l, 1 nmol/l, 10 nmol/l, 100 nmol/l and 1 μmol/l). The activity of the reporter gene LUC (LUC=luciferase) was determined in the cell lysates and was measured as RLU (relative light units). All measured values are given as % efficacy and as EC50 or IC50 concentrations.

Consider `CN(C)C(=O)c1ccc([C@H]2C[C@@]3(C)[C@@H](CC[C@@]3(O)C(F)(F)C(F)(F)F)[C@@H]3CCC4=CC(=O)CCC4=C32)cc1` [Example 2, 4-[(11β,17β)-17-Hydroxy-3-oxo-17-(pentafluoroethyl)estra-4,9-dien-11-yl]-N,N-dimethylbenzamide], for which the IC50 worked out at 2.3 nM in assay [1] and 1.2 nM in assay [2].
As for `CN1CCN(C(=O)c2ccc([C@H]3C[C@@]4(C)[C@@H](CC[C@@]4(O)C(F)(F)C(F)(F)F)[C@@H]4CCC5=CC(=O)CCC5=C43)cc2)CC1` [Example 3, (11β,17β)-17-hydroxy-11-{4-[(4-methylpiperazin-1-yl)carbonyl]phenyl}-17-(pentafluoroethyl)estra-4,9-dien-3-one], the figures for the half-maximal inhibitory concentration (IC50) in assay [1] and in assay [2] were 24 nM and 44 nM, respectively.
The like results for `CC(C)(C)OC(=O)N1CCN(C(=O)c2ccc([C@H]3C[C@@]4(C)[C@@H](CC[C@@]4(O)C(F)(F)C(F)(F)F)[C@@H]4CCC5=CC(=O)CCC5=C43)cc2)CC1` [Example 4, tert-butyl-4-{4-[(11β,17β)-17-hydroxy-3-oxo-17-(pentafluoroethyl)estra-4,9-dien-11-yl]benzoyl}piperazine-1-carboxylate] were, in that order, 0.62 nM and 1.6 nM.
In the same order, the values of `C[C@]12C[C@H](c3ccc(C(=O)N4CCCCC4)cc3)C3=C4CCC(=O)C=C4CC[C@H]3[C@@H]1CC[C@@]2(O)C(F)(F)C(F)(F)F` [Example 5, (11β,17β)-17-hydroxy-17-(pentafluoroethyl)-11-[4-(piperidin-1-ylcarbonyl)phenyl]estra-4,9-dien-3-one] are 4.7 nM and 5 nM.
`COC(=O)C1CCN(C(=O)c2ccc([C@H]3C[C@@]4(C)[C@@H](CC[C@@]4(O)C(F)(F)C(F)(F)F)[C@@H]4CCC5=CC(=O)CCC5=C43)cc2)CC1` [Example 6, methyl-1-{4-[(11β,17β)-17-hydroxy-3-oxo-17-(pentafluoroethyl)estra-4,9-dien-11-yl]benzoyl}piperidine-4-carboxylate]: the results for the IC50 in assay [1] and in assay [2] were 9.1 nM and 11 nM, respectively.
`CN(C)CCNC(=O)c1ccc([C@H]2C[C@@]3(C)[C@@H](CC[C@@]3(O)C(F)(F)C(F)(F)F)[C@@H]3CCC4=CC(=O)CCC4=C32)cc1` [Example 7, N-[2-(dimethylamino)ethyl]-4-[(11β,17β)-17-hydroxy-3-oxo-17-(pentafluoroethyl)estra-4,9-dien-11-yl]benzamide]: the half-inhibitory concentration (IC50) was determined as 54 nM in assay [1] and 30 nM in assay [2].
`CN(C)CCCNC(=O)c1ccc([C@H]2C[C@@]3(C)[C@@H](CC[C@@]3(O)C(F)(F)C(F)(F)F)[C@@H]3CCC4=CC(=O)CCC4=C32)cc1` [Example 8, N-[3-(dimethylamino)propyl]-4-[(11β,17β)-17-hydroxy-3-oxo-17-(pentafluoroethyl)estra-4,9-dien-11-yl]benzamide]: the IC50 turned out to be 47 nM in assay [1] and 33 nM in assay [2].
As for `CN(C)CCN(C)C(=O)c1ccc([C@H]2C[C@@]3(C)[C@@H](CC[C@@]3(O)C(F)(F)C(F)(F)F)[C@@H]3CCC4=CC(=O)CCC4=C32)cc1` [Example 9, N-[2-(dimethylamino)ethyl]-4-[(11β,17β)-17-hydroxy-3-oxo-17-(pentafluoroethyl)estra-4,9-dien-11-yl]-N-methylbenzamide], the IC50 is 23 nM in assay [1] and 18 nM in assay [2].
Regarding `COC(=O)c1ccccc1NC(=O)c1ccc([C@H]2C[C@@]3(C)[C@@H](CC[C@@]3(O)C(F)(F)C(F)(F)F)[C@@H]3CCC4=CC(=O)CCC4=C32)cc1` [Example 10, methyl-2-({4-[(11β,17β)-17-hydroxy-3-oxo-17-(pentafluoroethyl)estra-4,9-dien-11-yl]benzoyl}amino)benzoate], the IC50 in assay [1] came to 0.7 nM; in assay [2], 1 nM.
